These results are taken from patent publication US20240351999A1, “PYRROLYLACYLPIPERIDYLAMINE COMPOUND AND USE THEREOF” (INSTITUTE OF MATERIA MEDICA ,CHINESE ACADEMY OF MEDICAL …, priority 2021, published 2024).

Structures are written as SMILES. ≈ marks a conversion by molar mass, not a printed value. Where two headings read alike, the source gives them in different places.

A word on the ED50: it is the dose at which the effect has come halfway, by size or by number of responders. Higher therefore signals weaker potency. As usually defined, the bioavailability is the share of a dose that reaches the circulation, judged against a reference dose that is usually intravenous. Broadly, the half-life is the time needed for the level to fall by half in the phase considered. What is called AUC(0-inf) is total exposure, with the tail of the curve extrapolated. A low value points to low exposure. What is called Cmax is the maximum level reached in the sampled fluid or tissue. One may read the Tmax as the time from dosing to the highest level.

Data set [1] has as its system Staphylococcus aureus ATCC 29213. Nature of the data set: In vitro antibacterial activity (MIC), microbroth dilution. The settings on record: ATCC29213, 37° C., 18 h. Type of data set: cell-based.
Data set [2] relates to Escherichia coli ATCC 25922. The data set is described as above. In kind it is cell-based. The settings on record: ATCC25922, 37° C., 18 h, read-out: MIC Escherichia coli ATCC 25922.
For data set [3], the system named is Escherichia coli ATCC 35218. Described as above. Type of data set: cell-based. The conditions noted are these: ATCC35218, 37° C., 18 h, read-out: MIC Escherichia coli ATCC 35218.
The test system of data set [4] is Escherichia coli ECO+ 15-1. Described as above. Type of data set: cell-based. The settings on record: 37° C., 18 h, read-out: MIC Escherichia coli ECO+ 15-1.
In data set [5] the test system is Acinetobacter baumannii ATCC 19606. The data set is described as above. The conditions noted are these: ATCC19606, 37° C., 18 h, read-out: MIC Acinetobacter baumannii ATCC 19606. Type of data set: cell-based.
In data set [6] the test system is Pseudomonas aeruginosa ATCC 27853. The description is as above. Type of data set: cell-based. The conditions noted are these: ATCC27853, 37° C., 18 h, read-out: MIC Pseudomonas aeruginosa ATCC 27853.
Data set [7] has as its system Klebsiella pneumoniae KPN-15-1. Described as above. In kind it is cell-based. The conditions noted are these: KPN151, 37° C., 18 h, read-out: MIC Klebsiella pneumoniae KPN-15-1.
For data set [8], the system named is Escherichia coli ATCC25922. The settings on record: prior art value; cited from earlier work.
Data set [9] deals with Staphylococcus aureus ATCC 25923. Nature of the data set: In vitro antibacterial activity (MIC), microbroth dilution. Type of data set: cell-based. The settings on record: ATCC25923, 37° C., 18 h.
Data set [10] deals with Staphylococcus aureus ATCC 43300 (MRSA). The description is as above. In kind it is cell-based. The settings on record: 18 h, read-out: MIC Staphylococcus aureus ATCC 43300 (MRSA).
The test system of data set [11] is Staphylococcus aureus MRSA 15-1. The data set is described as above. Type of data set: cell-based. The settings on record: 37° C., 18 h.
Data set [12] has as its system Staphylococcus epidermidis ATCC 12228. Described as above. In kind it is cell-based. The conditions noted are these: ATCC12228, 37° C., 18 h.
For data set [13], the system named is Staphylococcus epidermidis MRSE 15-1. Described as above. In kind it is cell-based. The conditions noted are these: 37° C., 18 h.
The subject of data set [14] is Enterococcus faecalis ATCC 51575. Described as above. The settings on record: ATCC51575, 37° C., 18 h. Type of data set: cell-based.
Data set [15] has as its system Enterococcus faecium EFM 19-1. The description is as above. In kind it is cell-based. The conditions noted are these: EFM191, 37° C., 18 h.
Data set [16] has as its system Clostridium difficile ATCC 9689. The description is as above. The settings on record: for MIC: Clostridioides difficile, ATCC9689, read-out: MIC Clostridium difficile ATCC 9689. Type of data set: cell-based.
For data set [17], the system named is Mycobacterium tuberculosis. Briefly: Activity against Mycobacterium tuberculosis (MIC). In kind it is cell-based. The conditions noted are these: read-out: Inhibitory activity (MIC) against Mycobacterium tuberculosis.
In data set [18] the test system is Staphylococcus aureus ATCC 29213. Briefly: In vitro induced drug resistance, 20 generations at sub-MIC. In kind it is cell-based. The conditions noted are these: ATCC29213, read-out: MIC value after passage for 20 generations. The procedure: Test method: MIC values of a compound 1 and a control compound DS2969 against Staphylococcus aureus ATCC 29213 were determined by using a microbroth dilution method recommended by operating procedures for antibacterial susceptibility testing of the Clinical and Laboratory Standards Institute (CLSI).
After testing the MIC values, sub-MIC concentrations (1/2 MIC) of bacteria were diluted, and the concentration of the obtained bacterial solution was adjusted to 105 CFU/mL for a next round of MIC value testing. After 24 hours of incubation, bacterial suspensions were prepared by using bacterial suspensions at sub-MIC concentrations of drugs (1/2 MIC), and another MIC testing was performed. This process was repeated for 20 times, and the MIC value for each test was recorded.
The MIC values of the compound 1 and DS2969 inducing Staphylococcus aureus ATCC29213 for 20 generations were recorded, with the number of generations of bacteria induced as an abscissa and the MIC values as an ordinate (as shown in FIG. 1).

The test system of data set [19] is Staphylococcus aureus (MRSA, ATCC 43300). Nature of the data set: Antibacterial activity in mice, sepsis model. In kind it is in vivo, ICR mice. The conditions noted are these: MRSA ATCC 43300 sepsis model; for ED50: Staphylococcus aureus, po, intragastric administration at lower dose. On the procedure: (§1) Experimental animals: Beijing Vital River Laboratory Animal Technology Co., Ltd., ICR mice, with a uniform body weight of 20-22 g, and half male and half female.
Model: Sepsis model infected by Staphylococcus aureus (MRSA, ATCC 43300)
Modeling method: mice were infected with […] (diluted with a 5% sterile yeast solution) Staphylococcus aureus (MRSA, ATCC 43300) such that sepsis models of mice were formed (0.5 mL of a bacterial solution was injected intraperitoneally into each mouse).
Experimental scheme: a compound 1 and a positive drug were first dissolved in DMSO, and then diluted with other solvents, wherein a solvent ratio was saline:Tween 80:DMSO=9:0.5:0.5.

Data set [20] is described as follows: Pharmacokinetic test in mice. Type of data set: in vivo. The conditions noted are these: both sexes, ICR, mouse, po, 150 mg/kg intragastric administration; for half-life: read-out: t½z (half-life period) (converted). The procedure: as §1
Experimental scheme: a compound 1 was administered at a dose of 150 mg/kg (Solvents were as follows: saline:Tween 80:DMSO=9:0.5:0.5) by intragastric administration, and samples were taken by orbital blood sampling or a mode of sampling blood by enucleating eyeballs at 10 min, 20 min, 30 min, 1 h, 3 h, 5 h, 8 h, 24 h, 36 h, and 48 h after administration, plasma concentrations were determined by UPLC, a drug concentration-time curve was plotted, and key pharmacokinetic parameters were calculated.

The nature of data set [21]: Acute toxicity test in mice. Type of data set: in vivo.
From the text: as §1
In a tail vein administration group, there were 10 mice in each group, with half male and half female. In an intragastric administration group and an intraperitoneal administration group, there were four mice in each group, with half male and half female.

Data set [22] has as its system Staphylococcus aureus ATCC 29213. The conditions noted are these: prior art value; cited from earlier work.

For `COC[C@H](C)NC(=O)c1nc(N2CC[C@@H](NC(=O)c3[nH]c(C)c(Cl)c3Cl)[C@@H](OC)C2)sc1C(=O)O` [AZD5099], the MIC in data set [1] was 0.03 µg/mL (≈ 0.0547 µM); in [2], 32 µg/mL (≈ 58.3 µM); in data set [3], 32 µg/mL (≈ 58.3 µM); in data set [4], over 64 µg/mL; in data set [5] it was over 64 µg/mL; in [6] it was over 64 µg/mL. The MIC in data set [7] was over 64 µg/mL. For the same molecule, the “MIC Escherichia coli ATCC25922 (background)” value in data set [8] was 32 µg/mL (≈ 58.3 µM).

For the molecule `CO[C@H]1CN(c2ccc(C(C)(C)O)nn2)CC[C@H]1NC(=O)c1[nH]c(C)c(Cl)c1Cl` [Compound 1, 3,4-dichloro-N-{(3S,4R)-1-[6-(2-hydroxypropan-2-yl)pyridazin-3-yl]-3-methoxypiperidin-4-yl}-5-methyl-IH-pyrrole-2-carboxamide], the MIC is 0.008 µg/mL (≈ 0.0181 µM) in data set [1]; at most 0.03 µg/mL in [9]; at most 0.03 µg/mL in data set [10]; at most 0.03 µg/mL in [11]; at most 0.03 µg/mL in data set [12]; at most 0.03 µg/mL in data set [13]. The MIC in data set [14] was at most 0.03 µg/mL; in [15], at most 0.03 µg/mL; in data set [2], 1 µg/mL (≈ 2.26 µM); in [3], 1 µg/mL (≈ 2.26 µM); in [4], 8 µg/mL (≈ 18.1 µM); in [5] it was 8 µg/mL (≈ 18.1 µM). Further, the MIC was 4 µg/mL (≈ 9.04 µM) in data set [6]; 8 µg/mL (≈ 18.1 µM) in data set [7]; 0.25 µg/mL (≈ 0.565 µM) in [16]; 0.593 µg/mL (≈ 1.34 µM) in data set [17]; under 1 µg/mL in [18]. For the same molecule, the “Activity against Clostridium difficile compared with controls” value in data set [16] (vs DS2969 and vancomycin) is “stronger than those of DS2969 and the positive control drug vancomycin”. In addition, the “In vivo antibacterial activity (survival of mice)” value in data set [19] (50 mg/kg, 1 h after modeling, observed 14 days) is “significant in vivo antibacterial activity and shows better antibacterial activity than DS2969”. In data set [19], the ED50 came out at 5 mg/kg. In data set [20] (in vivo, read-out: F (bioavailability)), the bioavailability was 86%. In addition, the half-life is 9.2 h in data set [20] (in vivo) and 9.21 h in [20] (plasma). Besides, in [20] (plasma), the AUC(0-inf) turned out to be 933 µg·h/mL. Besides, the peak level in data set [20] (plasma) (Cmax) was 49400 ng/mL. For the same molecule, the Tmax in data set [20] (plasma) was 1 h. Also, the AUC(0-t) in data set [20] (plasma, read-out: AUC (0-48)) stood at 916 µg·h/mL. The MRT last in data set [20] (plasma, read-out: MRT (0-48)) stood at 16.1 h. In addition, the MRT inf in data set [20] (plasma, read-out: MRT (0-∞)) amounted to 16.9 h. The “Survival rate on day 14” value in data set [21] (95 mg/kg by a tail vein) is 60%; in data set [21] (200 mg/kg intraperitoneally), 100%; in data set [21] (800 mg/kg by intragastric administration), 75%.

Turning to `CCc1[nH]c(C(=O)N[C@@H]2CCN(c3nnc(C(C)(C)O)s3)C[C@@H]2OC)nc1Cl` [DS2969, reference compound], the MIC in [1], in data set [9], in data set [10] (37° C.), in data set [11], in data set [12] and in data set [13] was 0.5 µg/mL (≈ 1.17 µM) each time. For the same molecule, the MIC in data set [14] is 0.5 µg/mL (≈ 1.17 µM); in data set [15], 0.5 µg/mL (≈ 1.17 µM); in data set [2] it was 32 µg/mL (≈ 74.6 µM); in data set [3], 32 µg/mL (≈ 74.6 µM); in data set [4], over 64 µg/mL; in data set [5], over 64 µg/mL. In addition, the MIC in [6] was over 64 µg/mL; in data set [7] it was over 64 µg/mL; in data set [16], 0.5 µg/mL (≈ 1.17 µM); in data set [17] it was 0.654 µg/mL (≈ 1.52 µM); in data set [18], 16 µg/mL (≈ 37.3 µM). For the same molecule, the ED50 in data set [19] is over 10 mg/kg. Further, the “MIC Staphylococcus aureus ATCC 29213 (background)” value in [22] was 0.2 µg/mL (≈ 0.466 µM). In data set [8], the “MIC Escherichia coli ATCC25922 (background)” value is 32 µg/mL (≈ 74.6 µM).
